We go through 28 compounds from patent publication US11746100B2 (GLOBAL BLOOD THERAPEUTICS, INC., priority 2020, dated 2023).

The target of the test is T1, human ferroportin (Homo sapiens, UniProt Q9NP59).
T1 construct: luciferase reporter (read with the Nano-Glo Luciferase Assay System); expressed in transfected cells; host or cells: CHO cells, stably transfected, expression induced with doxycycline
T1 sequence (Q9NP59 1-571): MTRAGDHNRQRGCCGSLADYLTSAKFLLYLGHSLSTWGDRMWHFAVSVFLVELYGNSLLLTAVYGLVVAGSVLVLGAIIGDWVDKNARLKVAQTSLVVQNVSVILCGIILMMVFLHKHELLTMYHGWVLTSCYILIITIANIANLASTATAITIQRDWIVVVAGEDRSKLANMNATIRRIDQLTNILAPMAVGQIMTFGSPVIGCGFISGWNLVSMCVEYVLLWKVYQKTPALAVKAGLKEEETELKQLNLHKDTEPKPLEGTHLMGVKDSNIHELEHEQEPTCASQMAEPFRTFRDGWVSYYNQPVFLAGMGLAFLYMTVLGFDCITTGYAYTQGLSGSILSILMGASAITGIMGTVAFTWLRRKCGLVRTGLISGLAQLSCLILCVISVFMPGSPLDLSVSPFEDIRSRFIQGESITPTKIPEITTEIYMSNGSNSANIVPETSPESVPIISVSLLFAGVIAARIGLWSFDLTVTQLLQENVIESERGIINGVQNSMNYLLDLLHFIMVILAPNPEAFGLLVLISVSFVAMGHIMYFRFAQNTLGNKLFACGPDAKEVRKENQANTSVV
Put plainly: Biological in-vitro ferroportin internalization assay (luciferase reporter). The test is classed as cell-based. The settings on record: average pEC50; stably-transfected CHO cell line expressing human ferroportin tagged to a luciferase reporter; 6 h incubation with test compound. The procedure, abridged: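 Stably transfected CHO cells expressing luciferase-tagged human ferroportin, plated 24 h with ferric ammonium citrate and induced with doxycycline for 24 h. Compounds incubated 6 h, then luciferase activity measured by Nano-Glo; average pEC50 reported.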
For orientation: Reporter assays use an easily measured gene product as a stand-in for the process of interest.

The term pEC50 denotes −log10 of the EC50, conventionally taken in molar units. In turn, `COc1ccc(NC(=O)CN(C)c2nc(-c3cc4cn[nH]c4cn3)nc3c2CCC3)cn1` [Compound 219, N-(6-methoxypyridin-3-yl)-2-[methyl(2-{1H-pyrazolo[3,4-c]pyridin-5-yl}-5H,6H,7H-cyclopenta[d]pyrimidin-4-yl)amino]acetamide] came in with a pEC50 of 7.1.
With `CN(CC(=O)Nc1cnn(C)c1)c1nc(-c2cn(C)cn2)nc2c1CCC2` [Compound 220, N-(1-methyl-1H-pyrazol-4-yl)-2-{methyl[2-(1-methyl-1H-imidazol-4-yl)-5H,6H,7H-cyclopenta[d]pyrimidin-4-yl]amino}acetamide], the pEC50 is on record as 7.
The compound `CN(CC(=O)Nc1ccc(F)nc1)c1nc(-c2cc3ccccc3cn2)nc2c1CCC2` [Compound 221, N-(6-fluoropyridin-3-yl)-2-{[2-(isoquinolin-3-yl)-5H,6H,7H-cyclopenta[d]pyrimidin-4-yl](methyl)amino}acetamide] displayed a pEC50 of 7.
The figure for `Cc1ccc(NC(=O)CN(C)c2nc(-c3cc4ccccc4cn3)nc3c2CCC3)cn1` [Compound 222, 2-{[2-(isoquinolin-3-yl)-5H,6H,7H-cyclopenta[d]pyrimidin-4-yl](methyl)amino}-N-(6-methylpyridin-3-yl)acetamide] is 7.2; for `CCOc1ccnc(-c2nc3c(c(N(C)CC(=O)Nc4ccc(OC)nc4)n2)CCC3)c1` [Compound 223, 2-{[2-(4-ethoxypyridin-2-yl)-5H,6H,7H-cyclopenta[d]pyrimidin-4-yl](methyl)amino}-N-(6-methoxypyridin-3-yl)acetamide] it is 7.8; for `COc1ccc(NC(=O)CN(C)c2nc(-c3cc(OCC4CC4)ccn3)nc3c2CCC3)cn1` [Compound 224, 2-({2-[4-(cyclopropylmethoxy)pyridin-2-yl]-5H,6H,7H-cyclopenta[d]pyrimidin-4-yl}(methyl)amino)-N-(6-methoxypyridin-3-yl)acetamide] it is 7.9.
`COc1ccc(NC(=O)CN(C)c2nc(-c3cc(OC(F)F)ccn3)nc3c2CCC3)cn1` [Compound 225, 2-({2-[4-(difluoromethoxy)pyridin-2-yl]-5H,6H,7H-cyclopenta[d]pyrimidin-4-yl}(methyl)amino)-N-(6-methoxypyridin-3-yl)acetamide]: the pEC50 came to 6.8.
`CN(CC(=O)NC(C)(C)C)c1nc(-c2cc3c(cn2)OCO3)nc2c1CCC2` [Compound 226, N-tert-butyl-2-[(2-{2H-[1,3]dioxolo[4,5-c]pyridin-6-yl}-5H,6H,7H-cyclopenta[d]pyrimidin-4-yl)(methyl)amino]acetamide] gave a negative-log EC50 (pEC50) of 7.1.
Consider `COc1ccc(NC(=O)CN(C)c2nc(-c3cc4ccccc4cn3)nc3c2CCC3)cn1` [Compound 227, 2-{[2-(isoquinolin-3-yl)-5H,6H,7H-cyclopenta[d]pyrimidin-4-yl](methyl)amino}-N-(6-methoxypyridin-3-yl)acetamide], for which the pEC50 stood at 7.2.
In turn, `CN(CC(=O)Nc1cccnc1)c1nc(-c2cc3ccccc3cn2)nc2c1CCC2` [Compound 228] came in with a pEC50 of 7.1.
Regarding `COc1ccc(NC(=O)CN(C)c2nc(-c3cc(OC(F)(F)F)ccn3)nc3c2CCC3)cn1` [Compound 230, N-(6-methoxypyridin-3-yl)-2-[methyl({2-[4-(trifluoromethoxy)pyridin-2-yl]-5H,6H,7H-cyclopenta[d]pyrimidin-4-yl})amino]acetamide], the pEC50 is recorded as 6.6.
`CN(CC(=O)Nc1cnn(C)c1)c1nc(-c2cc(OC(F)(F)F)ccn2)nc2c1CCC2` [Compound 231, 2-[methyl({2-[4-(trifluoromethoxy)pyridin-2-yl]-5H,6H,7H-cyclopenta[d]pyrimidin-4-yl})amino]-N-(1-methyl-1H-pyrazol-4-yl)acetamide] displayed a pEC50 of 6.2.
`CN(CC(=O)Nc1ccn(C)n1)c1nc(-c2cc3cn[nH]c3cn2)nc2c1CCC2` [Compound 232, 2-[methyl(2-{1H-pyrazolo[3,4-c]pyridin-5-yl}-5H,6H,7H-cyclopenta[d]pyrimidin-4-yl)amino]-N-(1-methyl-1H-pyrazol-3-yl)acetamide]: the pEC50 worked out at 7.
Under `COc1ccc(NC(=O)CN(C)c2nc(-c3cc4ccccc4cn3)nc3c2CCC3)nc1` [Compound 233, 2-{[2-(isoquinolin-3-yl)-5H,6H,7H-cyclopenta[d]pyrimidin-4-yl](methyl)amino}-N-(5-methoxypyridin-2-yl)acetamide] stands 7.4; under `CN(CC(=O)Nc1ccc(OC(F)(F)F)nc1)c1nc(-c2cc3ccccc3cn2)nc2c1CCC2` [Compound 234, 2-{[2-(isoquinolin-3-yl)-5H,6H,7H-cyclopenta[d]pyrimidin-4-yl](methyl)amino}-N-[6-(trifluoromethoxy)pyridin-3-yl]acetamide], 6.4.
In the case of `Cc1cncc(NC(=O)CN(C)c2nc(-c3cc4ccccc4cn3)nc3c2CCC3)c1` [Compound 235, 2-{[2-(isoquinolin-3-yl)-5H,6H,7H-cyclopenta[d]pyrimidin-4-yl](methyl)amino}-N-(5-methylpyridin-3-yl)acetamide], the pEC50 is 7.5.
With `CN(CC(=O)Nc1cn(C)cn1)c1nc(-c2cc3ccccc3cn2)nc2c1CCC2` [Compound 236, 2-{[2-(isoquinolin-3-yl)-5H,6H,7H-cyclopenta[d]pyrimidin-4-yl](methyl)amino}-N-(1-methyl-1H-imidazol-4-yl)acetamide], the pEC50 is 7.4.
With `CN(CC(=O)Nc1ccn(C)n1)c1nc(-c2cc3ccccc3cn2)nc2c1CCC2` [Compound 237, 2-{[2-(isoquinolin-3-yl)-5H,6H,7H-cyclopenta[d]pyrimidin-4-yl](methyl)amino}-N-(1-methyl-1H-pyrazol-3-yl)acetamide], the pEC50 stood at 7.1.
Regarding `COCCOc1ccnc(-c2nc3c(c(N(C)CC(=O)Nc4ccc(OC)nc4)n2)CCC3)c1` [Compound 238, 2-({2-[4-(2-methoxyethoxy)pyridin-2-yl]-5H,6H,7H-cyclopenta[d]pyrimidin-4-yl}(methyl)amino)-N-(6-methoxypyridin-3-yl)acetamide], the pEC50 stood at 7.5.
The figure for `COCCOc1ccnc(-c2nc3c(c(N(C)CC(=O)NC(C)(C)C)n2)CCC3)c1` [Compound 239, N-tert-butyl-2-({2-[4-(2-methoxyethoxy)pyridin-2-yl]-5H,6H,7H-cyclopenta[d]pyrimidin-4-yl}(methyl)amino)acetamide] is 7.8; for `CN(CC(=O)Nc1cncc(F)c1)c1nc(-c2cc3ccccc3cn2)nc2c1CCC2` [Compound 240, N-(5-fluoropyridin-3-yl)-2-{[2-(isoquinolin-3-yl)-5H,6H,7H-cyclopenta[d]pyrimidin-4-yl](methyl)amino}acetamide] it is 7.1.
The figure for `CN(CC(=O)NC(C)(C)C)c1nc(-c2cc(OCCF)ccn2)nc2c1CCC2` [Compound 241, N-tert-butyl-2-({2-[4-(2-fluoroethoxy)pyridin-2-yl]-5H,6H,7H-cyclopenta[d]pyrimidin-4-yl}(methyl)amino)acetamide] is 8; for `COc1ccc(NC(=O)CN(C)c2nc(-c3cc(OCCF)ccn3)nc3c2CCC3)cn1` [Compound 242, 2-({2-[4-(2-fluoroethoxy)pyridin-2-yl]-5H,6H,7H-cyclopenta[d]pyrimidin-4-yl}(methyl)amino)-N-(6-methoxypyridin-3-yl)acetamide] it is 7.7; for `CN(CC(=O)Nc1cnn(C)c1)c1nc(-c2cc(OCCF)ccn2)nc2c1CCC2` [Compound 243, 2-({2-[4-(2-fluoroethoxy)pyridin-2-yl]-5H,6H,7H-cyclopenta[d]pyrimidin-4-yl}(methyl)amino)-N-(1-methyl-1H-pyrazol-4-yl)acetamide] it is 7.4.
Under `COc1ccc(NC(=O)CN(C)c2nc(-c3cc4cccnc4cn3)nc3c2CCC3)cn1` [Compound 244, N-(6-methoxypyridin-3-yl)-2-{methyl[2-(1,7-naphthyridin-6-yl)-5H,6H,7H-cyclopenta[d]pyrimidin-4-yl]amino}acetamide] stands 6.4.
Take `CN(CC(=O)NC(C)(C)C)c1nc(-c2cc(OC3COC3)ccn2)nc2c1CCC2` [Compound 245, N-tert-butyl-2-[methyl({2-[4-(oxetan-3-yloxy)pyridin-2-yl]-5H,6H,7H-cyclopenta[d]pyrimidin-4-yl})amino]acetamide]: the pEC50 stood at 7.7.
For `COc1ccc(NC(=O)[C@@H](C)N(C)c2nc(-c3cc4ccccc4cn3)nc3c2CCC3)cn1` [Compound 250, (2R)-2-{[2-(isoquinolin-3-yl)-5H,6H,7H-cyclopenta[d]pyrimidin-4-yl](methyl)amino}-N-(6-methoxypyridin-3-yl)propanamide], the pEC50 is given as 7.4.
In turn, `C[C@H](C(=O)Nc1cccc(F)c1)N(C)c1nc(-c2cc(OCCO)ccn2)nc2c1CCC2` [Compound 251, (2R)—N-(3-fluorophenyl)-2-({2-[4-(2-hydroxyethoxy)pyridin-2-yl]-5H,6H,7H-cyclopenta[d]pyrimidin-4-yl}(methyl)amino)propanamide] showed a pEC50 of 8.3.
